Reference: publication PMC10046377, “Inhibitors of the Oncogenic PA2G4-MYCN Protein-Protein Interface” (Cancers, 2023)

How the values were obtained:
[1] = system: SK-N-BE(2)-C cells; assay: Alamar Blue cell viability assay, SK-N-BE(2)-C; format: cell-based; details: Homo sapiens, MYCN amplified neuroblastoma cell line
Source text: (§1) The MYCN amplified neuroblastoma cell line SK-N-BE(2)-C was kindly provided by Professor June Biedler (Memorial Sloan Kettering Cancer Centre, New York, NY, USA), and Kelly was obtained from European Collection of Cell Cultures. The two normal lung fibroblast cell lines (MRC-5 and WI-38) were purchased from ATCC. SK-N-BE(2)-C shMYCN#2 doxycycline-inducible cell and Kelly shMYCN#2 doxycycline-inducible cell were custom-made by GenScript (Piscataway, NJ, USA). SK-N-BE(2)-C, SK-N-BE(2)-C shMYCN#2, and SHEP MYCN3 doxycycline-inducible cells were maintained in Dulbecco’s modified Eagle’s medium (DMEM) (Invitrogen, Life Technologies, Waltham, MA, USA) with 10% foetal calf serum (FCS). Kelly and Kelly shMYCN#2 doxycycline-inducible cell were cultured in Roswell Park Memorial Institute (RPMI) 1640 (Invitrogen, Life Technologies) with 10% FCS. MRC-5 and WI-38 were cultured in Alpha-MEM media (Invitrogen, Life Technologies) with 10% FCS. All cells were not cultured for more than 2 months. All used cell lines were authenticated by Cell Bank Australia (Westmead, NSW, Australia) as being free from mycoplasma, and cultured at 37 °C and 5% CO2 in a humidifier incubator.
(§2) Cell viability was determined by the Alamar Blue assay (75 mg resazurin, 12.5 mg methylene blue, 164.5 mg potassium hexacyanoferrate (III), 211 mg potassium hexacyanoferrate (II) trihydrate in 500 mL of phosphate buffered saline). After 6 h incubation with Alamar Blue, the change of fluorescence was measured by Victor 3 multilabel Plate Reader (Perkin Elmer Australia, Melburne, Australia) at an excitation wavelength of 560 nm and an emission wavelength of 590 nm.
(§3) We have shown that the PA2G4 protein increased the half-life of the oncoprotein MYCN through direct binding, and competitive chemical inhibition of this bond by WS6 reduced tumorigenicity both in vitro and in vivo [11]. […] Here, we explored the structure–activity relationship (SAR) of WS6 analogue compounds with the aim to increase efficacy and reduce toxicity. […] The in vitro cytotoxicity of these 14 compounds were measured by cell viability assays using Alamar Blue in MYCN amplified human neuroblastoma (SK-N-BE(2)-C and Kelly) cell lines compared to non-malignant (WI-38, MRC-5) myofibroblast cell lines (Figure 1B,C and Supplementary Figure S1A).

[2] = system: Kelly cells; assay: Alamar Blue cell viability assay, Kelly; format: cell-based; details: Homo sapiens, MYCN amplified neuroblastoma cell line
Source text: as §1, §2, §3

[3] = system: MRC-5 cells; assay: Alamar Blue cell viability assay, MRC-5 non-malignant myofibroblasts; format: cell-based; details: Homo sapiens, MRC5
Source text: as §1, §2, §3

[4] = system: WI-38 cells; assay: Alamar Blue cell viability assay, WI-38 non-malignant myofibroblasts; format: cell-based; details: Homo sapiens, read-out: IC50 WI-36
Source text: as §1, §2, §3

[5] = system: neuroblastoma cells (Kelly, SK-N-BE(2)-C) compared to non-malignant myofibroblasts (WI-38, MRC-5); assay: Therapeutic window, neuroblastoma cells versus non-malignant myofibroblasts; format: cell-based, human; details: non-malignant myofibroblast IC50 versus neuroblastoma cell IC50
Method: as §2, §3

[6] = system: TH-MYCN neuroblastoma mice; parameters: method as in PMID 31501192; details: cited from earlier work

Q: For `CN1CCN(Cc2ccc(NC(=O)Cc3ccc(Oc4cc(NC(=O)C5CC5)ncn4)cc3)cc2C(F)(F)F)CC1` [WS6, reference compound], which IC50 [1] is on record?
A: Its IC50 is 0.75 µM.

Q: And the IC50 [2]?
A: The IC50 was 0.65 µM.

Q: What about the IC50 [3] of the same compound?
A: The IC50 was 1.4 µM.

Q: And the IC50 [4]?
A: The IC50 was 1.5 µM.

Q: And the “Therapeutic window (fold difference)” value [5]?
A: Its value is 2.1 fold.

Q: What about the tumorigenicity [6] of the same compound?
A: The tumorigenicity was “significantly decreased tumorigenicity”.
